Laboratory results: ChEMBL document CHEMBL5370585, “Exploration and Biological Evaluation of 1,3-Diamino-7H-pyrrol[3,2-f]quinazoline Derivatives as Dihydrofolate Reductase Inhibitors” (J Med Chem, 2023)
Values after ≈ are worked out from the molar mass of the structure shown.

Columns and labels:
Staphylococcus aureus [1] = assay: Antibacterial activity against Staphylococcus aureus ATCC 29213 incubated for 16 to 18 hrs by CLSI based broth dilution method; assay type: functional; details: time 16-18 hrs
Staphylococcus aureus [2] = assay: Antibacterial activity against methicillin-resistant Staphylococcus aureus ATCC 43300 incubated for 16 to 18 hrs by CLSI based broth dilution method; assay type: functional; details: time 16-18 hrs
[3] = test system: Staphylococcus epidermidis; assay: Antibacterial activity against Staphylococcus epidermidis ATCC 12228 incubated for 16 to 18 hrs by CLSI based broth dilution method; assay type: functional; details: time 16-18 hrs
Acinetobacter baumannii = assay: Antibacterial activity against Acinetobacter baumannii ATCC 19606 incubated for 16 to 18 hrs by CLSI based broth dilution method; assay type: functional; details: time 16-18 hrs
Enterococcus faecalis = assay: Antibacterial activity against Enterococcus faecalis ATCC 29212 incubated for 16 to 18 hrs by CLSI based broth dilution method; assay type: functional; details: time 16-18 hrs
Escherichia coli = assay: Antibacterial activity against Escherichia coli ATCC 25922 incubated for 16 to 18 hrs by CLSI based broth dilution method; assay type: functional; details: time 16-18 hrs
[4] = target: T1, Dihydrofolate reductase (Homo sapiens) (UniProt P00374); assay: Inhibition of human DHFR at 1 uM incubated for 10 mins in presence of NADPH by colorimetry based analysis relative to control
T1 sequence (whole entry): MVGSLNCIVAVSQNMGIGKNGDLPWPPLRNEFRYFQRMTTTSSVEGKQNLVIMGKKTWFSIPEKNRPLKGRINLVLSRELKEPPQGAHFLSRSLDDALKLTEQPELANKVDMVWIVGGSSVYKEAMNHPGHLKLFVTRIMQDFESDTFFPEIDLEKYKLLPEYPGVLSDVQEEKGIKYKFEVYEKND

MCF7 = assay: Cytotoxicity against human MCF7 cells measured after 72 hrs by MTT assay; assay type: functional, cell-based; details: MCF7, 72 h
HGC-27 = assay: Cytotoxicity against human HGC-27 cells measured after 72 hrs by MTT assay; assay type: functional, cell-based; details: HGC-27, 72 h
HCT-116 = assay: Cytotoxicity against human HCT-116 cells measured after 72 hrs by MTT assay; assay type: functional, cell-based; details: HCT-116, 72 h
HepG2 = assay: Cytotoxicity against human HepG2 cells measured after 72 hrs by MTT assay; assay type: functional, cell-based; details: HepG2, 72 h
EMT6 [5] = assay: Antitumor activity against mouse EMT6 cells xenografted in ip dosed BALB/c mouse model assessed as delay in tumor progression administered every 3 days for 14 consecutive days; assay type: functional, organism-based; details: time 14.0 day
[6] = Toxicity in BALB/c mouse xenografted with mouse EMT6 cells at 2.5 mg/kg, ip administered every 3 days for 14 consecutive days; assay type: organism-based; details: in vivo, 336 h, time 14 day
[7] = Toxicity in BALB/c mouse xenografted with mouse EMT6 cells assessed as effect on body weight at 2.5 mg/kg, ip measured on day 1 (reference value: 18.5 +/-0.5g); assay type: organism-based; details: in vivo, 24 h, time 1 day
[8] = Toxicity in BALB/c mouse xenografted with mouse EMT6 cells assessed as effect on body weight at 5 mg/kg, ip measured on day 1 (reference value: 18.5 +/-0.5g); assay type: organism-based; details: in vivo, 24 h, time 1 day
[9] = Toxicity in BALB/c mouse xenografted with mouse EMT6 cells assessed as effect on body weight at 2.5 mg/kg, ip measured on day 14 (reference value: 21.6 +/-0.6g); assay type: organism-based; details: in vivo, 336 h, time 14 day
[10] = Toxicity in BALB/c mouse xenografted with mouse EMT6 cells assessed as effect on body weight at 5 mg/kg, ip measured on day 14 (reference value: 21.6 +/-0.6g); assay type: organism-based; details: in vivo, 336 h, time 14 day
EMT6 [11] = assay: Antitumor activity against mouse EMT6 cells xenografted in BALB/c mouse model assessed as tumor weight at 2.5 mg/kg,ip administered every 3 days for 14 consecutive days (reference value: 1.53 +/-0.26g); assay type: functional; details: time 14 day
EMT6 [12] = assay: Antitumor activity against mouse EMT6 cells xenografted in BALB/c mouse model assessed as tumor weight at 5 mg/kg,ip administered every 3 days for 14 consecutive days (reference value: 1.53 +/-0.26g); assay type: functional; details: time 14 day
EMT6 [13] = assay: Antitumor activity against mouse EMT6 cells xenografted in BALB/c mouse model assessed as tumor growth inhibition at 2.5 mg/kg,ip administered every 3 days for 14 consecutive days relative to control; assay type: functional; set-up: scale not given: the % may be the effect or the level left; details: time 14 day
EMT6 [14] = assay: Antitumor activity against mouse EMT6 cells xenografted in BALB/c mouse model assessed as tumor growth inhibition at 5 mg/kg,ip administered every 3 days for 14 consecutive days relative to control; assay type: functional; set-up: scale not given: the % may be the effect or the level left; details: time 14 day
[15] = Metabolic stability in mouse liver microsomes assessed as half life at 1 uM measured upto 60 mins in presence of NADPH by LC-MS/MS analysis; assay type: ADME, Microsome
[16] = Metabolic stability in mouse liver microsomes assessed as intrinsic clearance at 1 uM measured upto 60 mins in presence of NADPH by LC-MS/MS analysis; assay type: ADME, Microsome; details: read-out: CLH
[17] = Metabolic stability in mouse liver microsomes assessed as hepatic clearance at 1 uM measured upto 60 mins in presence of NADPH by LC-MS/MS analysis; assay type: ADME, Microsome; details: 1 h
[18] = Stability in mouse plasma assessed as parent compound remaining at 1 ug/ml measured after 10 mins by LC-MS/MS analysis; assay type: ADME, cell-free; details: at 1 µg/mL, read-out: Stability
[19] = Stability in mouse plasma assessed as parent compound remaining at 1 ug/ml measured after 20 mins by LC-MS/MS analysis; assay type: ADME, cell-free; details: at 1 µg/mL, read-out: Stability
[20] = Stability in mouse plasma assessed as parent compound remaining at 1 ug/ml measured after 30 mins by LC-MS/MS analysis; assay type: ADME, cell-free; details: at 1 µg/mL, read-out: Stability
[21] = Stability in mouse plasma assessed as parent compound remaining at 1 ug/ml measured after 45 mins by LC-MS/MS analysis; assay type: ADME, cell-free; details: at 1 µg/mL, read-out: Stability
[22] = Stability in mouse plasma assessed as parent compound remaining at 1 ug/ml measured after 60 mins by LC-MS/MS analysis; assay type: ADME, cell-free; details: at 1 µg/mL, read-out: Stability
[23] = Stability in mouse plasma assessed as parent compound remaining at 1 ug/ml measured after 120 mins by LC-MS/MS analysis; assay type: ADME, cell-free; details: at 1 µg/mL, read-out: Stability
[24] = Stability in mouse plasma assessed as parent compound remaining at 1 ug/ml measured after 240 mins by LC-MS/MS analysis; assay type: ADME, cell-free; details: at 1 µg/mL, read-out: Stability
[25] = Stability in mouse plasma assessed as parent compound remaining at 1 ug/ml measured after 1440 mins by LC-MS/MS analysis; assay type: ADME, cell-free; details: at 1 µg/mL, read-out: Stability
[26] = Stability in mouse plasma assessed as parent compound remaining at 5 ug/ml measured after 10 mins by LC-MS/MS analysis; assay type: ADME, cell-free; details: at 5 µg/mL, read-out: Stability
[27] = Stability in mouse plasma assessed as parent compound remaining at 5 ug/ml measured after 20 mins by LC-MS/MS analysis; assay type: ADME, cell-free; details: at 5 µg/mL, read-out: Stability
[28] = Stability in mouse plasma assessed as parent compound remaining at 5 ug/ml measured after 30 mins by LC-MS/MS analysis; assay type: ADME, cell-free; details: at 5 µg/mL, read-out: Stability
[29] = Stability in mouse plasma assessed as parent compound remaining at 5 ug/ml measured after 45 mins by LC-MS/MS analysis; assay type: ADME, cell-free; details: at 5 µg/mL, read-out: Stability
[30] = Stability in mouse plasma assessed as parent compound remaining at 5 ug/ml measured after 60 mins by LC-MS/MS analysis; assay type: ADME, cell-free; details: at 5 µg/mL, read-out: Stability
[31] = Stability in mouse plasma assessed as parent compound remaining at 5 ug/ml measured after 120 mins by LC-MS/MS analysis; assay type: ADME, cell-free; details: at 5 µg/mL, read-out: Stability
[32] = Stability in mouse plasma assessed as parent compound remaining at 5 ug/ml measured after 240 mins by LC-MS/MS analysis; assay type: ADME, cell-free; details: at 5 µg/mL, read-out: Stability
[33] = Stability in mouse plasma assessed as parent compound remaining at 5 ug/ml measured after 1440 mins by LC-MS/MS analysis; assay type: ADME, cell-free; details: at 5 µg/mL, read-out: Stability
[34] = Half life in ICR mouse at 10 mg/kg, ip measured after 5 to 24 hrs post administration by LC-MS/MS analysis; assay type: ADME, organism-based; details: in vivo, time 5-24 hrs
[35] = Tmax in ICR mouse at 10 mg/kg, ip measured after 5 to 24 hrs post administration by LC-MS/MS analysis; assay type: ADME, organism-based; details: in vivo, time 5-24 hrs
[36] = AUC (0 to infinity) in ICR mouse at 10 mg/kg, ip measured after 5 to 24 hrs post administration by LC-MS/MS analysis; assay type: ADME, organism-based; set-up: time upper 24 hrs, dose 10 mg/kg, time lower 5 hrs, route ip; details: ICR, in vivo
[37] = AUC (0 to t) in ICR mouse at 10 mg/kg, ip measured after 5 to 24 hrs post administration by LC-MS/MS analysis; assay type: ADME, organism-based; set-up: time 5-24 hrs, dose 10 mg/kg, route ip; details: ICR, in vivo

Q: With `Cc1cc2c3c(N)nc(N)nc3ccc2n1Cc1nc2ccccc2s1` as the compound, how does the MIC (Staphylococcus aureus [1]) read?
A: 0.5 µg/mL (≈ 1.39 µM)

Q: What about the MIC (Staphylococcus aureus [2]) of the same compound?
A: 0.25 µg/mL (≈ 0.694 µM)

Q: And the MIC [3]?
A: ≤ 0.004 µg/mL

Q: What about the MIC (Acinetobacter baumannii) of the same compound?
A: 4 µg/mL (≈ 11.1 µM)

Q: What about the MIC (Enterococcus faecalis) of the same compound?
A: 0.5 µg/mL (≈ 1.39 µM)

Q: What about the MIC (Escherichia coli) of the same compound?
A: 1 µg/mL (≈ 2.77 µM)

Q: And the inhibition [4]?
A: 99.1%

Q: What about the IC50 (MCF7) of the same compound?
A: 430 nM

Q: What about the IC50 (HGC-27) of the same compound?
A: 540 nM

Q: What about the IC50 (HCT-116) of the same compound?
A: 1950 nM

Q: What about the IC50 (HepG2) of the same compound?
A: 180 nM

Q: What about the Activity (EMT6 [5]) of the same compound?
A: Dose-Dependent Effect

Q: And the Activity [6]?
A: Non-Toxic

Q: And the Activity [7]?
A: 18.4 g

Q: And the Activity [8]?
A: 18.3 g

Q: And the Activity [9]?
A: 14.9 g

Q: What about the Activity [10] of the same compound?
A: 17.6 g

Q: What about the Activity (EMT6 [11]) of the same compound?
A: 0.44 g

Q: And the Activity (EMT6 [12])?
A: 0.95 g

Q: What about the Activity (EMT6 [13]) of the same compound?
A: 71%

Q: And the Activity (EMT6 [14])?
A: 37.7%

Q: What about the half-life at 1 µM [15] of the same compound?
A: 1.37 h

Q: What about the microsomal CLint at 1 µM [16] of the same compound?
A: 16.9 µL/min/mg

Q: And the CLH [17]?
A: 38.3 mL/min/kg

Q: What about the remaining at 10 min, 1 ug/ml [18] of the same compound?
A: 99.6%

Q: And the remaining at 20 min, 1 ug/ml [19]?
A: 99.3%

Q: What about the remaining at 0.5 h, 1 ug/ml [20] of the same compound?
A: 99.1%

Q: And the remaining at 0.75 h, 1 ug/ml [21]?
A: 98.9%

Q: And the remaining at 1 h, 1 ug/ml [22]?
A: 98.5%

Q: And the remaining at 2 h, 1 ug/ml [23]?
A: 98.4%

Q: What about the remaining at 4 h, 1 ug/ml [24] of the same compound?
A: 98.5%

Q: And the remaining at 24 h, 1 ug/ml [25]?
A: 97.3%

Q: What about the remaining at 10 min, 5 ug/ml [26] of the same compound?
A: 99%

Q: And the remaining at 20 min, 5 ug/ml [27]?
A: 98.6%

Q: What about the remaining at 0.5 h, 5 ug/ml [28] of the same compound?
A: 98.3%

Q: What about the remaining at 0.75 h, 5 ug/ml [29] of the same compound?
A: 97.9%

Q: What about the remaining at 1 h, 5 ug/ml [30] of the same compound?
A: 97.8%

Q: What about the remaining at 2 h, 5 ug/ml [31] of the same compound?
A: 97.3%

Q: What about the remaining at 4 h, 5 ug/ml [32] of the same compound?
A: 97.5%

Q: What about the remaining at 24 h, 5 ug/ml [33] of the same compound?
A: 97%

Q: And the half-life [34]?
A: 9.81 h

Q: What about the Tmax [35] of the same compound?
A: 0.83 h

Q: What about the AUC(0-inf) [36] of the same compound?
A: 2740 ng·h/mL

Q: And the AUC(0-t) [37]?
A: 2280 ng·h/mL
